Measurements taken from PMC6220303 (EMBO Molecular Medicine, 2018).

Legend:
[1] = system: healthy participants ≥ 60 years; experiment: Adverse events after 3 months daily dosing (Appendix Table S8); type: in vivo, human
Description: For further details, see the Appendix Table S10 in Appendix and the accompanying clinical protocols synopsis (Appendix Table S11).
Randomized, double-blind, placebo-controlled, parallel-group study to assess the safety, Multiple-dose over 13-tolerability, pharmacokinetics ≥ 60 yrs 100 / 24 weeks (2, 10, 35 or 85 mg and pharmacodynamics of q.d. CNP520 vs. placebo) multiple oral doses of CNP520 in healthy elderly participants
Title A randomized, double-blind, placebo-controlled, parallel-group study to assess the safety, tolerability, pharmacokinetics and pharmacodynamics of multiple oral doses of CNP520 in healthy elderly subjects
Brief title Dose-ranging safety and tolerability study in subjects ≥60 years of age Sponsor and Clinical Novartis
Study type Interventional […]
rationale months to allow initiation future long-term efficacy trials in patients with Alzheimer’s disease (AD) or in subjects at risk of AD. In addition, data relevant for Pharmacokinetic/Pharmacodynamic modeling will be obtained in order to define the target dose in subsequent efficacy studies.
Primary Objective(s) To determine the safety and tolerability of multiple, once-daily oral doses of […]
Secondary • To assess the change from baseline of CSF Aβ concentrations (Aβ1-Objectives 38; Aβ1-40; Aβ1-42) in healthy elderly subjects over 13 weeks treatment with CNP520 as compared to placebo

[2] = Shelf life of the clinical capsule form; type: physicochemical; conditions: kept refrigerated

## C[C@@]1(c2nc(NC(=O)c3ncc(C(F)(F)F)cc3Cl)ccc2F)CO[C@@](C)(C(F)(F)F)C(N)=N1 [CNP520]
[1]; 10 mg daily, N = 25
  AE incidence: Injury, poisoning and procedural complications: 11 (44.0) n (%)
  AE incidence: Investigations: 0 (0.0) n (%)
  AE incidence: Metabolism and nutrition disorders: 1 (4.0) n (%)
  AE incidence: Neoplasms benign, malignant & unspecified (incl. cysts and polyps): 1 (4.0) n (%)
  AE incidence: Nervous system disorders: 10 (40.0) n (%)
  AE incidence: Psychiatric disorders: 2 (8.0) n (%)
  AE incidence: Renal and urinary disorders: 2 (8.0) n (%)
  AE incidence: Reproductive system and breast disorders: 2 (8.0) n (%)
  AE incidence: Respiratory, thoracic and mediastinal disorders: 6 (24.0) n (%)
  AE incidence: Skin and subcutaneous tissue disorders: 7 (28.0) n (%)
  AE incidence: Vascular disorders: 2 (8.0) n (%)
  Participants with at least one AE: 22 (88.0) n (%)
[1]; 35 mg daily, N = 26
  AE incidence: Blood and lymphatic system disorders: 1 (3.8) n (%)
  AE incidence: Ear and labyrinth disorders: 1 (3.8) n (%)
  AE incidence: Eye disorders: 0 (0.0) n (%)
  AE incidence: Gastrointestinal disorders: 9 (34.6) n (%)
  AE incidence: General disorders and administration site conditions: 4 (15.4) n (%)
  AE incidence: Immune system disorders: 0 (0.0) n (%)
  AE incidence: Infections and infestations: 6 (23.1) n (%)
  AE incidence: Injury, poisoning and procedural complications: 10 (38.5) n (%)
  AE incidence: Investigations: 1 (3.8) n (%)
  AE incidence: Metabolism and nutrition disorders: 0 (0.0) n (%)
  AE incidence: Neoplasms benign, malignant & unspecified (incl. cysts and polyps): 0 (0.0) n (%)
  AE incidence: Nervous system disorders: 9 (34.6) n (%)
  AE incidence: Psychiatric disorders: 1 (3.8) n (%)
  AE incidence: Renal and urinary disorders: 2 (7.7) n (%)
  AE incidence: Reproductive system and breast disorders: 0 (0.0) n (%)
  AE incidence: Respiratory, thoracic and mediastinal disorders: 5 (19.2) n (%)
  AE incidence: Skin and subcutaneous tissue disorders: 2 (7.7) n (%)
  AE incidence: Vascular disorders: 0 (0.0) n (%)
  Participants with at least one AE: 21 (80.8) n (%)
[1]; 85 mg daily, N = 24
  AE incidence: Blood and lymphatic system disorders: 0 (0.0) n (%)
  AE incidence: Ear and labyrinth disorders: 1 (4.2) n (%)
  AE incidence: Eye disorders: 4 (16.7) n (%)
  AE incidence: Gastrointestinal disorders: 4 (16.7) n (%)
  AE incidence: General disorders and administration site conditions: 5 (20.8) n (%)
  AE incidence: Immune system disorders: 1 (4.2) n (%)
  AE incidence: Infections and infestations: 4 (16.7) n (%)
  AE incidence: Injury, poisoning and procedural complications: 8 (33.3) n (%)
  AE incidence: Investigations: 1 (4.2) n (%)
  AE incidence: Metabolism and nutrition disorders: 0 (0.0) n (%)
  AE incidence: Neoplasms benign, malignant & unspecified (incl. cysts and polyps): 0 (0.0) n (%)
  AE incidence: Nervous system disorders: 8 (33.3) n (%)
  AE incidence: Psychiatric disorders: 2 (8.3) n (%)
  AE incidence: Renal and urinary disorders: 1 (4.2) n (%)
  AE incidence: Reproductive system and breast disorders: 0 (0.0) n (%)
  AE incidence: Respiratory, thoracic and mediastinal disorders: 5 (20.8) n (%)
  AE incidence: Skin and subcutaneous tissue disorders: 6 (25.0) n (%)
  AE incidence: Vascular disorders: 1 (4.2) n (%)
  Participants with at least one AE: 18 (75.0) n (%)
[1]; all doses, N = 100
  AE incidence: Blood and lymphatic system disorders: 1 (1.0) n (%)
  AE incidence: Ear and labyrinth disorders: 3 (3.0) n (%)
  AE incidence: Eye disorders: 11 (11.0) n (%)
  AE incidence: Gastrointestinal disorders: 29 (29.0) n (%)
  AE incidence: General disorders and administration site conditions: 12 (12.0) n (%)
  AE incidence: Immune system disorders: 1 (1.0) n (%)
  AE incidence: Infections and infestations: 23 (23.0) n (%)
  AE incidence: Injury, poisoning and procedural complications: 36 (36.0) n (%)
  AE incidence: Investigations: 4 (4.0) n (%)
  AE incidence: Metabolism and nutrition disorders: 2 (2.0) n (%)
  AE incidence: Neoplasms benign, malignant & unspecified (incl. cysts and polyps): 2 (2.0) n (%)
  AE incidence: Nervous system disorders: 40 (40.0) n (%)
  AE incidence: Psychiatric disorders: 6 (6.0) n (%)
  AE incidence: Renal and urinary disorders: 5 (5.0) n (%)
  AE incidence: Reproductive system and breast disorders: 2 (2.0) n (%)
  AE incidence: Respiratory, thoracic and mediastinal disorders: 22 (22.0) n (%)
  AE incidence: Skin and subcutaneous tissue disorders: 18 (18.0) n (%)
  AE incidence: Vascular disorders: 3 (3.0) n (%)
  Participants with at least one AE: 80 (80.0) n (%)
[1]; human, in vivo
  AE incidence: Musculoskeletal and connective tissue disorders: 27 (27.0) n (%)
[2]
  shelf life of the capsule form: 24 months
